# Like-named read-outs stand apart in the source and are kept apart here.
# Key:
# Type in all cases: cell-based
# Bacteroides fragilis = test: MIC, clindamycin prodrugs; settings: Bacteroides fragilis
# [1] = test system: Bacteroides thetaiotamicron; test: MIC, clindamycin prodrugs; settings: Bacteroides
# [2] = test system: Bifidobacterium adolescentis; test: MIC, clindamycin prodrugs; settings: Bifidobacterium adolescentis, NCTC11814, read-out: Minimum inhibitory concentration
# Bifidobacterium dentium = test: MIC, clindamycin prodrugs; settings: Bifidobacterium dentium, NCTC11816, read-out: Minimum inhibitory concentration
# Bifidobacterium longum = test: MIC, clindamycin prodrugs; settings: Bifidobacterium longum, NCTC11818, read-out: Minimum inhibitory concentration
# Clostridium perfringens = test: microbe, parasite or virus in culture; settings: Clostridium perfringens
# Clostridium sporogenes = test: MIC, clindamycin prodrugs; settings: Clostridium sporogenes, ATCC3584; ATCC 3584; read-out: Minimum inhibitory concentration
# [3] = test system: Prevotella melaninogenicus; test: MIC, clindamycin prodrugs
# Propionibacterium acnes = test: MIC, clindamycin prodrugs; settings: Cutibacterium acnes
# Veillonella atypical = test: MIC, clindamycin prodrugs; settings: Veillonella, NCTC11830, read-out: Minimum inhibitory concentration
# Veillonella parvula = test: MIC, clindamycin prodrugs; settings: Veillonella parvula, NCTC11810, read-out: Minimum inhibitory concentration
# Campylobacter coli = test: MIC, clindamycin prodrugs; settings: Campylobacter coli
# Campylobacter jejuni = test: MIC, clindamycin prodrugs; settings: Campylobacter jejuni
# Helicobacter pylori = test: MIC, clindamycin prodrugs; settings: for MIC: Helicobacter pylori
# Staphylococcusaureus = test: MIC, clindamycin prodrugs
# [4] = test system: Staphylococcus epidermidis; test: MIC, clindamycin prodrugs
# [5] = test system: Staphylococcus haemolyticus; test: MIC, clindamycin prodrugs; settings: Staphylococcus haemolyticus, read-out: Minimum inhibitory concentration
# Streptococcus pneumoniae = test: MIC, clindamycin prodrugs; settings: Streptococcus pneumoniae
# Streptococcus pyogenes = test: MIC, clindamycin prodrugs
# Group C Streptococcus = test: MIC, clindamycin prodrugs; settings: Streptococcus, read-out: Minimum inhibitory concentration
# [6] = read-out: Minimum inhibitory concentration
structure (smiles),measurement,setting,value
"CCC[C@@H]1C[C@@H](C(=O)N[C@@H]([C@H]2O[C@H](SC)[C@H](O)[C@@H](O)[C@H]2O)[C@H](C)Cl)N(C)C1 [Clindamycin, clindamycin, reference compound]",MIC,"Bacteroides fragilis; ATCC25285, read-out: Minimum inhibitory concentration",0.5 µg/mL
same,MIC,Bacteroides fragilis; [6],0.12 µg/mL
same,MIC,"[1]; ATCC29741, read-out: Minimum inhibitory concentration",2 µg/mL
same,MIC,"[1]; NCTC10582, read-out: Minimum inhibitory concentration",1 µg/mL
same,MIC,[2],≤ 0.03 µg/mL
same,MIC,Bifidobacterium dentium,≤ 0.03 µg/mL
same,MIC,Bifidobacterium longum,0.12 µg/mL
same,MIC,"Clostridium perfringens; ATCC13124, read-out: Minimum inhibitory concentration",0.06 µg/mL
same,MIC,Clostridium perfringens; [6],0.06 µg/mL
same,MIC,Clostridium sporogenes,32 µg/mL
same,MIC,"[3]; Prevotella, read-out: Minimum inhibitory concentration",≤ 0.03 µg/mL
same,Minimum inhibitory concentration,"[3]; clinical isolate (second listed, r38)",≦0.03 ug/mL
same,MIC,"Propionibacterium acnes; read-out: Minimum inhibitory concentration, clinical isolate MIC clindamycin 0.5 mg/L",0.12 µg/mL
same,MIC,"Propionibacterium acnes; read-out: Minimum inhibitory concentration, clinical isolate MIC clindamycin […]",0.06 µg/mL
same,MIC,Veillonella atypical,0.06 µg/mL
same,MIC,Veillonella parvula,≤ 0.03 µg/mL
same,MIC,"Campylobacter coli; ATCC33559, read-out: Minimum inhibitory concentration",≤ 0.03 µg/mL
same,MIC,Campylobacter coli; [6],0.06 µg/mL
same,MIC,"Campylobacter jejuni; ATCC33560, read-out: Minimum inhibitory concentration",≤ 0.03 µg/mL
same,MIC,Campylobacter jejuni; [6],≤ 0.03 µg/mL
same,MIC,"Helicobacter pylori; ATCC43504, read-out: Minimum inhibitory concentration",≤ 0.03 µg/mL
same,MIC,Helicobacter pylori; [6],≤ 0.03 µg/mL
same,Minimum inhibitory concentration,Helicobacter pylori; clinical isolate (r56),≦0.03 ug/mL
same,Minimum inhibitory concentration,Helicobacter pylori; clinical isolate (r57),≦0.03 ug/mL
same,Minimum inhibitory concentration,Helicobacter pylori; clinical isolate (r101),≦0.03 ug/mL
same,MIC,"Staphylococcusaureus; read-out: Minimum inhibitory concentration, ATCC 25923 - antibiotic-susceptible type strain",0.06 µg/mL
same,MIC,"Staphylococcusaureus; read-out: Minimum inhibitory concentration, ATCC 29213 - antibiotic-susceptible type strain",0.06 µg/mL
same,MIC,"Staphylococcusaureus; read-out: Minimum inhibitory concentration, ATCC 43300 - methicillin-resistant type strain",> 64 µg/mL
same,MIC,"[4]; Staphylococcus epidermidis, read-out: Minimum inhibitory concentration",0.12 µg/mL
same,Minimum inhibitory concentration,[4]; methicillin-resistant clinical isolate,0.12 µg/mL
same,MIC,[5],0.06 µg/mL
same,MIC,"Streptococcus pneumoniae; ATCC49619, read-out: Minimum inhibitory concentration",≤ 0.03 µg/mL
same,MIC,Streptococcus pneumoniae; [6],≤ 0.03 µg/mL
same,Minimum inhibitory concentration,Streptococcus pyogenes; Macrolide (MLS) resistant clinical isolate,≦0.03 ug/mL
same,MIC,"Streptococcus pyogenes; Streptococcus pyogenes, read-out: Minimum inhibitory concentration",≤ 0.03 µg/mL
same,MIC,Group C Streptococcus,≤ 0.03 µg/mL

# Source: US20120202756A1, “USE OF PRODRUGS TO AVOID GI MEDIATED ADVERSE EVENTS” (priority 2009, published 2012)
